Assay results from article PMC12298351, “Novel 3,19-(N-Phenyl-3-(4-fluorophenyl)-pyrazole) Acetal of Andrographolide Promotes Cell Cycle Arrest and Apoptosis in MDA-MB-231 Breast Cancer Cells” (Pharmaceuticals, 2025).

Experiments:
RXF 393 = settings: RXF 393, Renal
SK-OV-3 = settings: SK-OV-3, Ovarian
HCT-15 = settings: HCT-15, Colon
HT29 = settings: HT29, Colon
IGROV1 = settings: IGROV1, Ovarian
OVCAR-4 = type: cell-based; settings: OVCAR-4, Ovarian
MDA-MB-468 = settings: MDA-MB-468, Breast
OVCAR-5 = settings: OVCAR-5, Ovarian
DU-145 = settings: DU-145, Prostate
HCC-2998 = settings: HCC-2998, Colon
OVCAR-3 = settings: OVCAR-3, Ovarian
A498 = settings: A498, Renal
CAKI-1 = settings: CAKI-1, Renal
SK-MEL-2 = settings: SK-MEL-2, Melanoma
BT-549 = type: cell-based; settings: BT-549, Breast
UACC-257 = settings: UACC-257, Melanoma
UACC-62 = settings: UACC-62, Melanoma
MDA-MB-435 = settings: MDA-MB-435, Melanoma
[1] = read-out: 50% lethal concentration (LC50)
[2] = read-out: 50% lethal concentration (LC50), Leukemia
[3] = read-out: 50% lethal concentration (LC50), Non-Small Cell Lung

## C=C1CCC2C3(C)COC(c4cn(-c5ccccc5)nc4-c4ccc(C)cc4)OC3CCC2(C)C1CC=C1C(=O)OCC1O (stereo not shown) [1i]
LOX IMVI; Melanoma
  GI50: 1.43 µM
  Total growth inhibition (TGI): 2.74 µM
LOX IMVI; read-out: 50% lethal concentration (LC50), Melanoma
  CC50: 5.25 µM
RXF 393
  GI50: 1.49 µM
  Total growth inhibition (TGI): 2.97 µM
RXF 393; [1]
  CC50: 5.92 µM
SR; Leukemia
  GI50: 2.74 µM
  Total growth inhibition (TGI): > 100 µM
SR; [2]
  CC50: > 100 µM
SK-OV-3
  GI50: 3.47 µM
  Total growth inhibition (TGI): 12.1 µM
SK-OV-3; [1]
  CC50: > 100 µM
HCT-15
  GI50: 1.59 µM
  Total growth inhibition (TGI): 3.19 µM
HCT-15; [1]
  CC50: 6.38 µM
HT29
  GI50: 1.9 µM
  Total growth inhibition (TGI): 4.58 µM
HT29; [1]
  CC50: > 100 µM
IGROV1
  GI50: 3.95 µM
  Total growth inhibition (TGI): 12.5 µM
IGROV1; [1]
  CC50: > 100 µM
OVCAR-4
  GI50: 1.92 µM
  Total growth inhibition (TGI): 4.27 µM
MDA-MB-468
  GI50: 1.85 µM
  Total growth inhibition (TGI): 3.45 µM
MDA-MB-468; [1]
  CC50: 6.43 µM
NCI-H226; NCI-H226, Non-Small Cell Lung
  Total growth inhibition (TGI): 2.95 µM
NCI-H226; NCI-H226, Non-Small-Cell Lung
  GI50: 1.47 µM
NCI-H226; read-out: 50% lethal concentration (LC50), NCI-H226, Non-Small Cell Lung
  CC50: 5.92 µM
OVCAR-5
  GI50: 1.93 µM
  Total growth inhibition (TGI): 4.59 µM
OVCAR-5; [1]
  CC50: 40.5 µM
DU-145
  GI50: 2.05 µM
  Total growth inhibition (TGI): 4.19 µM
DU-145; [1]
  CC50: 8.55 µM
NCI/ADR-RES; Ovarian
  GI50: 1.65 µM
  Total growth inhibition (TGI): 3.71 µM
NCI/ADR-RES; read-out: 50% lethal concentration (LC50), Ovarian
  CC50: 8.34 µM
HOP-62; HOP-62, Non-Small Cell Lung
  Total growth inhibition (TGI): 4.44 µM
HOP-62; HOP-62, Non-Small-Cell Lung
  GI50: 2.12 µM
HOP-62; read-out: 50% lethal concentration (LC50), HOP-62, Non-Small Cell Lung
  CC50: 9.27 µM
HCC-2998
  GI50: 1.63 µM
  Total growth inhibition (TGI): 3.06 µM
OVCAR-3
  GI50: 1.95 µM
  Total growth inhibition (TGI): 3.82 µM
OVCAR-3; [1]
  CC50: 7.49 µM
A498
  GI50: 4.03 µM
  Total growth inhibition (TGI): 15.8 µM
A498; [1]
  CC50: 48.8 µM
CAKI-1
  GI50: 1.71 µM
  Total growth inhibition (TGI): 3.37 µM
CAKI-1; [1]
  CC50: 6.64 µM
SK-MEL-2
  GI50: 1.79 µM
  Total growth inhibition (TGI): 3.28 µM
EKVX; Non-Small Cell Lung
  Total growth inhibition (TGI): 4.96 µM
EKVX; Non-Small-Cell Lung
  GI50: 2.13 µM
EKVX; [3]
  CC50: > 100 µM
HOP-92; HOP-92, Non-Small Cell Lung
  Total growth inhibition (TGI): 3.14 µM
HOP-92; HOP-92, Non-Small-Cell Lung
  GI50: 1.43 µM
HOP-92; read-out: 50% lethal concentration (LC50), HOP-92, Non-Small Cell Lung
  CC50: 6.88 µM
CCRF-CEM; Leukemia
  GI50: 8.4 µM
  Total growth inhibition (TGI): > 100 µM
CCRF-CEM; [2]
  CC50: > 100 µM
BT-549
  GI50: 1.2 µM
  Total growth inhibition (TGI): 3.02 µM
NCI-H460; NCI-H460, Non-Small Cell Lung
  Total growth inhibition (TGI): 3.56 µM
NCI-H460; NCI-H460, Non-Small-Cell Lung
  GI50: 1.83 µM
NCI-H460; read-out: 50% lethal concentration (LC50), NCI-H460, Non-Small Cell Lung
  CC50: 6.91 µM
NCI-H522; NCI-H522, Non-Small Cell Lung
  Total growth inhibition (TGI): 3.46 µM
NCI-H522; NCI-H522, Non-Small-Cell Lung
  GI50: 1.75 µM
NCI-H522; read-out: 50% lethal concentration (LC50), NCI-H522, Non-Small Cell Lung
  CC50: 6.86 µM
NCI-H23; NCI-H23, Non-Small Cell Lung
  Total growth inhibition (TGI): 3.5 µM
NCI-H23; NCI-H23, Non-Small-Cell Lung
  GI50: 1.76 µM
NCI-H23; read-out: 50% lethal concentration (LC50), NCI-H23, Non-Small Cell Lung
  CC50: 6.96 µM
A549/ATCC; Non-Small Cell Lung
  Total growth inhibition (TGI): 13.5 µM
A549/ATCC; Non-Small-Cell Lung
  GI50: 3.09 µM
A549/ATCC; [3]
  CC50: > 100 µM
HS 578T; Breast
  GI50: 1.85 µM
  Total growth inhibition (TGI): 3.41 µM
HS 578T; read-out: 50% lethal concentration (LC50), Breast
  CC50: 6.28 µM
UACC-257
  GI50: 1.74 µM
  Total growth inhibition (TGI): 3.47 µM
UACC-62
  GI50: 1.64 µM
  Total growth inhibition (TGI): 3.15 µM
UACC-62; [1]
  CC50: 6.04 µM
MDA-MB-435
  GI50: 1.61 µM
  Total growth inhibition (TGI): 3.31 µM
MDA-MB-435; [1]
  CC50: 6.79 µM
